{"source": "patent US9364479B2", "about": "“Use of a receptor-type kinase modulator for treating polycystic kidney disease” (SYMPHONY EVOLUTION, INC., priority 2010, dated 2016)", "key": {"[1]": {"test_system": "HN5 human tumor xenograft", "assay": "HN5 xenograft, tumor growth", "type": "in vivo", "details": "Mus musculus; qd × 14", "method": "The response of tumors to treatment was determined by comparing the mean tumor weight of the treatment group with the appropriate control group. Percentage inhibition of tumor growth was determined with the following formula: Percentage inhibition=100×[1−(Xf−Xo)/(Yf−Yo)], where Xf and Yf are the mean tumor weights of the treatment and control groups, respectively, on day f, and Xo and Yo are the mean tumor weights of treatment and control groups respectively, on day zero (staged tumor weights after grouping)"}, "[2]": {"target": "c-Kit (Homo sapiens, UniProt P10721)", "sequence (P10721 26-976)": "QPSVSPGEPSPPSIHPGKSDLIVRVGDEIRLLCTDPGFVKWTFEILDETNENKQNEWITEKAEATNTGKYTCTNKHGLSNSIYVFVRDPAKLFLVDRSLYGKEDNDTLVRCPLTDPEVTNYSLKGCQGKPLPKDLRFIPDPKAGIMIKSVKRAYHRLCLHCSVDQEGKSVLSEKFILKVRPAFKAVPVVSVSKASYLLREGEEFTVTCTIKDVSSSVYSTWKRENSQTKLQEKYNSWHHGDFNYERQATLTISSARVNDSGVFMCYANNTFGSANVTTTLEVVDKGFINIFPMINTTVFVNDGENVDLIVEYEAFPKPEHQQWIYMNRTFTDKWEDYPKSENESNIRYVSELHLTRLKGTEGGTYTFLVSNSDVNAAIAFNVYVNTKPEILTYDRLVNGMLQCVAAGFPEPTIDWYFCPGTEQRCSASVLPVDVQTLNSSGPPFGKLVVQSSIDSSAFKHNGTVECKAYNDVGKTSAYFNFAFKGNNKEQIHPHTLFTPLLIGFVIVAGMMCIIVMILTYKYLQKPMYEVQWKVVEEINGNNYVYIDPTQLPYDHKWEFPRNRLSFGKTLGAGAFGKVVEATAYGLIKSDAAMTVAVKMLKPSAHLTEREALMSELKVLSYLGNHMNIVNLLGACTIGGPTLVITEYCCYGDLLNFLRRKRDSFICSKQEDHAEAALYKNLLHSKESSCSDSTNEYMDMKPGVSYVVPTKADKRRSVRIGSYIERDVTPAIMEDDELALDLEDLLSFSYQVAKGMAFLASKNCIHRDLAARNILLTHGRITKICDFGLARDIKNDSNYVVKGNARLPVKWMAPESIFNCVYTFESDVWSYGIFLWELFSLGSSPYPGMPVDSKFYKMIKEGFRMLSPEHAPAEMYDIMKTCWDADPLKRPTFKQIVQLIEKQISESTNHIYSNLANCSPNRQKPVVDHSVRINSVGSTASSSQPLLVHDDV", "assay": "c-Kit autophosphorylation ELISA, transfected HeLa cells", "type": "cell-based", "design": "expressed in transfected cells; host or cells: HeLa", "details": "read-out: Cellular IC50, autophosphorylation", "method": "The c-Kit autophosphorylation ELISA utilized HeLa (ATCC) cells. Cells were seeded at 6×10^5 cells/well onto 100 mm dish. 24 hours later, HeLa cells were transfected with a mammalian expression plasmid containing a CMV promoter operably linked to the open reading frame of human c-kit with a Flag epitope tag on the C-terminus 24 hours later, c-Kit transfected HeLa cells were trypsinized and re-seeded at 6×10^3 cells/well into 96-well microtiter plates (Costar 3904), in DMEM (Cellgro) containing 10% FBS (Heat-Inactivated, Hyclone), 1% penicillin-streptomycin (Cellgro), and 1% NEAA solution (Cellgro). The cells were then incubated at 37° C., 5% CO2 for 24 hr. […] Negative control wells were left unstimulated. Following stimulation, media was removed, the cell monolayer washed with cold PBS and immediately lysed with cold lysis buffer. Lysates were incubated in 96-well streptavidin-coated plates (Pierce) coated with biotin-conjugated, goat anti-human c-Kit (1 μg/ml, R&D Systems). Plates were washed 3× with TBST and incubated either with HRP-conjugated anti-phosphotyrosine (1:10,000, Zymed Laboratories, Inc) or HRP-conjugated anti-Flag(M2) (1:2,000, Sigma). Plates were washed again as described above followed by the addition of a luminol-based substrate solution and read with a Victor spectrophotometer (Wallac)."}, "[3]": {"target": "KDR (Homo sapiens, UniProt P35968)", "sequence (P35968 807-1356)": "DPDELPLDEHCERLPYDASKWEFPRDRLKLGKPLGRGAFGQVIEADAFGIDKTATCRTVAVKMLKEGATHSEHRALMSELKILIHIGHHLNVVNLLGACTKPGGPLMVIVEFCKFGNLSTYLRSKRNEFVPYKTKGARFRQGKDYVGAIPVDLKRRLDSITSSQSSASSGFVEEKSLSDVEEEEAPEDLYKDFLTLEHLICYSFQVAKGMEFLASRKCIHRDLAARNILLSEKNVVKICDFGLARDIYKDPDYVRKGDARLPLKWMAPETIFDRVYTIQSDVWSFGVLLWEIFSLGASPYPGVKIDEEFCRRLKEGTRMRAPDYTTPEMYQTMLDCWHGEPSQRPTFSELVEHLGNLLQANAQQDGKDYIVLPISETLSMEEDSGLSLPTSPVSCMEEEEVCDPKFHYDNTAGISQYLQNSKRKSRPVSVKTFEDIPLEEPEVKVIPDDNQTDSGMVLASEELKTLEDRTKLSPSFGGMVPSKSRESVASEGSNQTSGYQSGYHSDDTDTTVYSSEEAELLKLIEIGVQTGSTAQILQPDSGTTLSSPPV", "assay": "Mechanism of action study / Ki determination", "type": "biochemical", "design": "residues D807-V1356 of human KDR, Proqinase; purchased Proqinase", "method": "Enzymatic activity was measured by standard methods after dilution of the enzyme-inhibitor complex."}, "[4]": {"test_system": "Corticotropin Releasing Factor, Non-selective", "assay": "NovaScreen assay", "type": "binding"}, "[5]": {"assay": "in vivo", "details": "for AUC(0-t) / Cmax / half-life: po; for dosing terminated because of toxicity: 2 days", "method": "The nonclinical Pharmacokinetics (PK) of XL-647 was studied in mice, rats, dogs, and monkeys. Animals were dosed either once or daily over several days, as described in Table 21 and 22 below. A summary of results can also be found in Tables 21 and 22 below. […] Mean tmax values were approximately 4 to 8 hours, and plasma terminal half-lives ranged from 9.41 to 20.9 hours."}, "[6]": {"target": "T1, Serotonin Transporter (Homo sapiens, UniProt P31645)", "T1 construct": "NovaScreen", "T1 sequence (P31645 whole entry)": "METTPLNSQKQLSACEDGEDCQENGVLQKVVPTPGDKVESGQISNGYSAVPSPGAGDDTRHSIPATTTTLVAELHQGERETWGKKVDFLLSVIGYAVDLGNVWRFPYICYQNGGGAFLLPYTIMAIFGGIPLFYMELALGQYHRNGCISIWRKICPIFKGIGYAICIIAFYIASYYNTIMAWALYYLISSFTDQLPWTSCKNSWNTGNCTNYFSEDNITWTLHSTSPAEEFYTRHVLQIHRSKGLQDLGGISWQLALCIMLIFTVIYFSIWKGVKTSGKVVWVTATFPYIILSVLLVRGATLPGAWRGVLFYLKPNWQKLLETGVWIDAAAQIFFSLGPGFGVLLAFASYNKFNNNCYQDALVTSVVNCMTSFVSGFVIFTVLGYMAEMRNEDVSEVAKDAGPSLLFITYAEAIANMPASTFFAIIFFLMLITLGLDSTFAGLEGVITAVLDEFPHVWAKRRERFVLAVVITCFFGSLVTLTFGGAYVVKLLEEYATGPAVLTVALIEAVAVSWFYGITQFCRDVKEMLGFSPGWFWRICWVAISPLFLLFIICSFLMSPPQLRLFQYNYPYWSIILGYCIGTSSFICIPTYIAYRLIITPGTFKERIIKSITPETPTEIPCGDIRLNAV", "assay": "NovaScreen assay", "type": "binding"}, "[7]": {"target": "wt EGFR (A431) (Homo sapiens, UniProt P00533)", "sequence (P00533 25-1210)": "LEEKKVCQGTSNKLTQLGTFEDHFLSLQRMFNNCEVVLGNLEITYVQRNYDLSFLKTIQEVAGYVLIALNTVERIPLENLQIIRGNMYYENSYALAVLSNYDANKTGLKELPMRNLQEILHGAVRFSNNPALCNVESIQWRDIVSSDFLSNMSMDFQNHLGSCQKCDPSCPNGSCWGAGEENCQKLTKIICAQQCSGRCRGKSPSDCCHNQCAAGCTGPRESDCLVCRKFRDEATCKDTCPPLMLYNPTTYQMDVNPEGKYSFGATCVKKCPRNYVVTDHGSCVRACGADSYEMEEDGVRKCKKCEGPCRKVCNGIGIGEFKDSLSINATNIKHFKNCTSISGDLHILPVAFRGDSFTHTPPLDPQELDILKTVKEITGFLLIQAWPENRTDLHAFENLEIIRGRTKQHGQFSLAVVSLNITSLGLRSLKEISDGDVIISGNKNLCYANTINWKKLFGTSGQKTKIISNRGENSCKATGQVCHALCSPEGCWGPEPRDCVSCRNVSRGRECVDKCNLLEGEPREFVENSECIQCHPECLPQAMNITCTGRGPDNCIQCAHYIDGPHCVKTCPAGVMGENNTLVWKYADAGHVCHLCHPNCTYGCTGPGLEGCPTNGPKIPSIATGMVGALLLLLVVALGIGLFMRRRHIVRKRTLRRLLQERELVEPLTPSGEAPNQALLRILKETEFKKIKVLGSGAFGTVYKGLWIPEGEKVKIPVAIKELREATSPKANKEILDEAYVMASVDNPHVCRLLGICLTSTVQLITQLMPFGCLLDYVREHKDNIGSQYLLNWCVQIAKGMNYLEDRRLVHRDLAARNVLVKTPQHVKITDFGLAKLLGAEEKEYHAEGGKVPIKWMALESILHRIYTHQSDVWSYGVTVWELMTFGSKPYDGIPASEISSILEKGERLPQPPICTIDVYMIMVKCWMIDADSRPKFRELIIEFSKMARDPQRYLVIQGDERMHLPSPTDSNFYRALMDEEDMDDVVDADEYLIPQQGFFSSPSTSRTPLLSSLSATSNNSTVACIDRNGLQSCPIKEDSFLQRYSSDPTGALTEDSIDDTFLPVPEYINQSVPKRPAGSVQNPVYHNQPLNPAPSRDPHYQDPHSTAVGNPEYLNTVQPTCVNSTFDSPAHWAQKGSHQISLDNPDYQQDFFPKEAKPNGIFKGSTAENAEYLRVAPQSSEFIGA", "assay": "Cell-based EGFR autophosphorylation assay in A431 cells", "details": "read-out: IC50, EGFR phosphorylation", "experimental": "A431 contains overexpressed wt human EGFR.\nA431 and MDA-MB-231 cell lines were maintained and propagated as monolayer cultures in DMEM (Mediatech) containing L-glutamine supplemented with 10% heat-inactivated fetal bovine serum (Hyclone), 100 units/mL penicillin G, 100 μg/mL streptomycin (1% penicillin/streptomycin, Mediatech), and 1% nonessential amino acids (Mediatech) at 37° C. in a humidified 5% CO2 incubator.\nA431 cells were seeded at 5×10^4 per well in 96-well microtiter plates (3904 Costar, VWR) and incubated in fully supplemented DMEM for 16 h after which growth medium was replaced with serum-free DMEM and the cells were incubated for an additional 24 h. […] After treatment, cell monolayers were washed with cold PBS and immediately lysed with cold lysis buffer (50 mmol/L Tris-HCl (pH 8.0), 150 mmol/L NaCl, 10% glycerol, 1% NP40, 0.1% SDS, 0.5% sodium deoxycholate, 1 mmol/L EDTA, 50 mmol/L NaF, 1 mmol/L sodium pyrophosphate, 1 mmol/L sodium orthovanadate, 2 mmol/L phenylmethylsulfonyl fluoride, 10 μg/mL aprotinin, 5 μg/mL leupeptin, 5 μg/mL pepstatin). […] Horseradish peroxidase activity was determined by reading the plates in a Victor2 plate reader following addition of the ELISA Femto substrate (Pierce)."}}, "data": [{"molecule": "COc1cc2c(Nc3ccc(Cl)c(Cl)c3F)ncnc2cc1OC[C@@H]1C[C@@H]2CN(C)C[C@@H]2C1", "note": "[XL-647, N-(3,4-dichloro-2-fluorophenyl)-7-({[(3aR,5r,6aS)-2-methyloctahydrocyclopenta[c]pyrrol-5-yl]methyl}oxy)-6-(methyloxy)quinazolin-4-amine]", "values": [{"measurement": "ED50", "setting": "[1]", "result": "< 3", "unit": "mg/kg"}, {"measurement": "IC50", "setting": "[2]", "result": 90, "unit": "nM"}, {"measurement": "ATP-Competitive", "setting": "[3]", "result": "Yes"}, {"measurement": "Ki", "setting": "[3]", "result": 0.6, "unit": "nM"}, {"measurement": "Reversible", "setting": "[3]", "result": "Yes"}, {"measurement": "Inhibition, 10 μM XL-647", "setting": "[4]", "result": 32.32, "unit": "%"}, {"measurement": "AUC(0-t)", "setting": "[5]; female, dog, 100 mg/kg", "result": 21200, "unit": "ng·h/mL"}, {"measurement": "Cmax", "setting": "[5]; female, dog, 100 mg/kg", "result": 1100, "unit": "ng/mL"}, {"measurement": "half-life", "setting": "[5]; female, dog, 100 mg/kg", "result": 14.2, "unit": "h"}, {"measurement": "AUC(0-t)", "setting": "[5]; female, dog, 300 mg/kg", "result": 17100, "unit": "ng·h/mL"}, {"measurement": "Cmax", "setting": "[5]; female, dog, 300 mg/kg", "result": 1610, "unit": "ng/mL"}, {"measurement": "half-life", "setting": "[5]; female, dog, 300 mg/kg", "result": 12.1, "unit": "h"}, {"measurement": "AUC(0-t)", "setting": "[5]; female, dog, 1000 mg/kg", "result": 34200, "unit": "ng·h/mL"}, {"measurement": "Cmax", "setting": "[5]; female, dog, 1000 mg/kg", "result": 5090, "unit": "ng/mL"}, {"measurement": "half-life", "setting": "[5]; female, dog, 1000 mg/kg", "result": 16.1, "unit": "h"}, {"measurement": "AUC(0-t)", "setting": "[5]; female, monkey, 2 mg/kg", "result": 450, "unit": "ng·h/mL"}, {"measurement": "Cmax", "setting": "[5]; female, monkey, 2 mg/kg", "result": 38, "unit": "ng/mL"}, {"measurement": "AUC(0-t)", "setting": "[5]; female, monkey, 6 mg/kg", "result": 1690, "unit": "ng·h/mL"}, {"measurement": "Cmax", "setting": "[5]; female, monkey, 6 mg/kg", "result": 116, "unit": "ng/mL"}, {"measurement": "AUC(0-t)", "setting": "[5]; female, monkey, 10 mg/kg", "result": 4270, "unit": "ng·h/mL"}, {"measurement": "Cmax", "setting": "[5]; female, monkey, 10 mg/kg", "result": 216, "unit": "ng/mL"}, {"measurement": "half-life", "setting": "[5]; female, monkey, 10 mg/kg", "result": 14.9, "unit": "h"}, {"measurement": "AUC(0-t)", "setting": "[5]; female, monkey, 20 mg/kg", "result": 3910, "unit": "ng·h/mL"}, {"measurement": "Cmax", "setting": "[5]; female, monkey, 20 mg/kg", "result": 202, "unit": "ng/mL"}, {"measurement": "half-life", "setting": "[5]; female, monkey, 50 mg/kg", "result": 14.8, "unit": "h"}, {"measurement": "AUC(0-t)", "setting": "[5]; female, monkey, 100 mg/kg", "result": 28000, "unit": "ng·h/mL"}, {"measurement": "Cmax", "setting": "[5]; female, monkey, 100 mg/kg", "result": 2160, "unit": "ng/mL"}, {"measurement": "half-life", "setting": "[5]; female, monkey, 100 mg/kg", "result": 11.6, "unit": "h"}, {"measurement": "AUC(0-t)", "setting": "[5]; female, monkey, 150 mg/kg", "result": 7030, "unit": "ng·h/mL"}, {"measurement": "Cmax", "setting": "[5]; female, monkey, 150 mg/kg", "result": 379, "unit": "ng/mL"}, {"measurement": "half-life", "setting": "[5]; female, monkey, 150 mg/kg", "result": 20.4, "unit": "h"}, {"measurement": "AUC(0-t)", "setting": "[5]; male, dog, 100 mg/kg", "result": 8970, "unit": "ng·h/mL"}, {"measurement": "Cmax", "setting": "[5]; male, dog, 100 mg/kg", "result": 407, "unit": "ng/mL"}, {"measurement": "half-life", "setting": "[5]; male, dog, 100 mg/kg", "result": 10.4, "unit": "h"}, {"measurement": "AUC(0-t)", "setting": "[5]; male, dog, 300 mg/kg", "result": 7790, "unit": "ng·h/mL"}, {"measurement": "Cmax", "setting": "[5]; male, dog, 300 mg/kg", "result": 936, "unit": "ng/mL"}, {"measurement": "half-life", "setting": "[5]; male, dog, 300 mg/kg", "result": 12.7, "unit": "h"}, {"measurement": "AUC(0-t)", "setting": "[5]; male, dog, 1000 mg/kg", "result": 27300, "unit": "ng·h/mL"}, {"measurement": "Cmax", "setting": "[5]; male, dog, 1000 mg/kg", "result": 3770, "unit": "ng/mL"}, {"measurement": "half-life", "setting": "[5]; male, dog, 1000 mg/kg", "result": 13.2, "unit": "h"}, {"measurement": "AUC(0-t)", "setting": "[5]; male, monkey, 2 mg/kg", "result": 488, "unit": "ng·h/mL"}, {"measurement": "Cmax", "setting": "[5]; male, monkey, 2 mg/kg", "result": 28.4, "unit": "ng/mL"}, {"measurement": "AUC(0-t)", "setting": "[5]; male, monkey, 6 mg/kg", "result": 1860, "unit": "ng·h/mL"}, {"measurement": "Cmax", "setting": "[5]; male, monkey, 6 mg/kg", "result": 106, "unit": "ng/mL"}, {"measurement": "AUC(0-t)", "setting": "[5]; male, monkey, 10 mg/kg", "result": 3630, "unit": "ng·h/mL"}, {"measurement": "Cmax", "setting": "[5]; male, monkey, 10 mg/kg", "result": 230, "unit": "ng/mL"}, {"measurement": "half-life", "setting": "[5]; male, monkey, 10 mg/kg", "result": 14.7, "unit": "h"}, {"measurement": "AUC(0-t)", "setting": "[5]; male, monkey, 20 mg/kg", "result": 3900, "unit": "ng·h/mL"}, {"measurement": "Cmax", "setting": "[5]; male, monkey, 20 mg/kg", "result": 194, "unit": "ng/mL"}, {"measurement": "half-life", "setting": "[5]; male, monkey, 50 mg/kg", "result": 20.5, "unit": "h"}, {"measurement": "AUC(0-t)", "setting": "[5]; male, monkey, 100 mg/kg", "result": 19600, "unit": "ng·h/mL"}, {"measurement": "Cmax", "setting": "[5]; male, monkey, 100 mg/kg", "result": 1220, "unit": "ng/mL"}, {"measurement": "half-life", "setting": "[5]; male, monkey, 100 mg/kg", "result": 20.7, "unit": "h"}, {"measurement": "AUC(0-t)", "setting": "[5]; male, monkey, 150 mg/kg", "result": 14500, "unit": "ng·h/mL"}, {"measurement": "Cmax", "setting": "[5]; male, monkey, 150 mg/kg", "result": 737, "unit": "ng/mL"}, {"measurement": "half-life", "setting": "[5]; male, monkey, 150 mg/kg", "result": 19.8, "unit": "h"}, {"measurement": "dosing terminated because of toxicity observed on Days 6 and 7", "setting": "[5]; monkey, 20 mg/kg", "result": "then terminated because"}, {"measurement": "dosing terminated because of toxicity", "setting": "[5]; monkey, 50 mg/kg", "result": "bid × 2, then terminated"}, {"measurement": "dosing terminated because of toxicity", "setting": "[5]; monkey, 100 mg/kg", "result": "qd × 2, then terminated"}, {"measurement": "dosing terminated because of toxicity", "setting": "[5]; monkey, 300 mg/kg", "result": "qd × 2, then terminated"}, {"measurement": "AUC(0-t)", "setting": "[5]; rat, 1 mg/kg", "result": 198, "unit": "ng·h/mL"}, {"measurement": "Cmax", "setting": "[5]; rat, 1 mg/kg", "result": 12.7, "unit": "ng/mL"}, {"measurement": "half-life", "setting": "[5]; rat, 1 mg/kg", "result": 14.4, "unit": "h"}, {"measurement": "AUC(0-t)", "setting": "[5]; rat, 3 mg/kg", "result": 776, "unit": "ng·h/mL"}, {"measurement": "Cmax", "setting": "[5]; rat, 3 mg/kg", "result": 50.4, "unit": "ng/mL"}, {"measurement": "half-life", "setting": "[5]; rat, 3 mg/kg", "result": 20.4, "unit": "h"}, {"measurement": "AUC(0-t)", "setting": "[5]; rat, 30 mg/kg", "result": 5740, "unit": "ng·h/mL"}, {"measurement": "Cmax", "setting": "[5]; rat, 30 mg/kg", "result": 319, "unit": "ng/mL"}, {"measurement": "half-life", "setting": "[5]; rat, 30 mg/kg", "result": 20.4, "unit": "h"}, {"measurement": "AUC(0-t)", "setting": "[5]; rat, 100 mg/kg", "result": 18300, "unit": "ng·h/mL"}, {"measurement": "Cmax", "setting": "[5]; rat, 100 mg/kg", "result": 909, "unit": "ng/mL"}, {"measurement": "AUC(0-t)", "setting": "[5]; rat, 200 mg/kg", "result": 29500, "unit": "ng·h/mL"}, {"measurement": "Cmax", "setting": "[5]; rat, 200 mg/kg", "result": 1000, "unit": "ng/mL"}, {"measurement": "AUC(0-t)", "setting": "[5]; rat, 600 mg/kg", "result": 41200, "unit": "ng·h/mL"}, {"measurement": "Cmax", "setting": "[5]; rat, 600 mg/kg", "result": 1330, "unit": "ng/mL"}, {"measurement": "AUC(0-t)", "setting": "[5]; rat, 2000 mg/kg", "result": 53000, "unit": "ng·h/mL"}, {"measurement": "Cmax", "setting": "[5]; rat, 2000 mg/kg", "result": 1690, "unit": "ng/mL"}, {"measurement": "IC50", "setting": "[6]", "result": 188, "unit": "nM"}, {"measurement": "inhibition at 10 µM", "setting": "[6]; read-out: Inhibition, 10 μM XL-647", "result": 101, "unit": "%"}, {"measurement": "IC50", "setting": "[7]", "result": 1, "unit": "nM"}]}]}
